The test system of series [1] is EHV-1 Pneumabort vaccine strain. The series is described as follows: Comparative in vivo activity against equine rhinopneumonitis virus in hamsters, medicated drinking water (Example 15). Details: species or system Syrian hamsters. Conditions: for Cumulative mortality (out of 15) on day: water conc. 0.075 mg/ml, average intake 6.6-6.8 mg/kg/day. As to the method:
50 male WO/CR Syrian hamsters were caged randomly in 10 groups of 5, with water and food (seed mix) ad lib. Hamsters were weighed on Days -3, 0, 4, and/or- at death/sacrifice. Water consumption was recorded over Days -3 to 0 to 4.
EHV-1 Pneumabort vaccine strain stored as a 10^-1 dilution, was further diluted 10^-1 in PBS for infection. On Day 0, hamsters in Groups 1-9 received 0.2 ml virus inoculum s/c in the left flank equivalent to about 2 x 10^5 PFU (plaque-forming units).
457U and 759U were dissolved in drinking water at 0.075 mg/ml. Assuming an average daily intake of […], this would result in a daily dose of around 10 mg/kg. Medicated water was provided from approximately 5 hours pre-infection for 96 hours, as below
The drug intake was calculated from the weight of the animals and the water consumption recorded over the period of the experiment.

The test system of a further series is herpes virus. The series is described as follows: In vivo activity against herpetic encephalitis, intracerebrally infected mice (Example 17). Conditions: for Mean reciprocal survival time: 100 mg/kg oral twice daily for 5 days, around 300 x LD50 intracerebrally, 14 days observation. The method, then: Swiss mice weighing 12-15 g were anaesthetised with ether and inoculated intracerebrally with 0.025 ml of a tissue culture preparation of type herpes virus. The mice were examined daily for sign of herpes encephalitis i.e. cerebral irritation leading to paralysis, coma and death. […] The viscera of the mice were examined for signs of infection with bacteria or other agents and if no abnormalities were found the brains were removed asceptically and ground to a smooth paste. The homogenate was resuspended in 4 ml of tissue culture maintenance medium to each brain, and mixed with glycerol in the ratio 2:1. Mouse brains weigh approximately 400 mg and the preparation thus represented a dilution of 10^-1.
The stocks of virus thus prepared were titrated in mice to determine the LD50 titre by inoculating mice intracerebrally with 10-fold dilutions of the stock preparation of virus and subsquently examined twice daily for signs of infection. The LD50 titre was calculated by the Karber method.
Groups of 5 mice were infected intracerebrally with stock virus diluted to give a dose of around 300 x LD50. The compound under test was administered twice daily as a suspension by the oral route at a dose of 100 mg/kg. The animals were examined twice daily and survival times were recorded to the nearst half-day. Dosing was carried out for 5 days and the total period of observation was 14 days. Survival times were converted to recipocals and the mean survival time was determined for each group L. Bauer, D. J., Brit. J. Exp. Path., 1960, 41, 130).

The next series can be described thus: Solubility in water. The series is classed as physicochemical. The source says: As mentioned above, the compounds of formula (I) have the important advantage of having a greater solubility in water than acyclovir. Thus, the compounds of formula (I) wherein X is an oxygen atom and R is a hydroxy group or amino group have solubilities of 0.4 -.0.5% and 2 - 3% w/w respectively compared with a figure of 0.14% w/w for acyclovir.

The subject of series [2] is Equine rhinopneumonitis virus (EHV-1). As to the kind of experiment: In vivo activity against equine rhinopneumonitis virus in hamsters (Example 14), intraperitoneal and oral. Details: species or system Syrian weanling hamsters. Conditions: Equid alphaherpesvirus 1, ip, 120 h; intraperitoneally for 5 days commencing 5 hours pre-infection; read-out: dose rate generally necessary to prevent any virus-induced mortality.

Each structure is given as a SMILES string. ≈ marks a conversion by molar mass, not a printed value.

Regarding `Nc1nc2c(ncn2COC(CO)CO)c(=O)[nH]1` [Example 759U, 9-[(2-hydroxy-1-hydroxymethylethoxy)methyl]guanine], in series [1] (in 15 treated hamsters, 14 deaths in 15 untreated controls), the “deaths from virus-induced hepatitis” value is listed as “no deaths”. Moreover, the “prevention of EHV-1 induced mortality” value in series [1] (orally in drinking water, approximately 7 mg/kg/day) was “completely prevented”. The “Cumulative mortality (out of 15) on day” value in series [1] (day 2), in series [1] (day 3) and in series [1] (day 4+) was 0 each time. Also, the “Mean reciprocal survival time” value in the series with herpes virus was 0.15. The “activity given orally to intracerebrally infected mice compared with acyclovir” value with herpes virus (same conditions) is given as “much greater than acyclovir”.
In the case of `Nc1nc2c(ncn2COCCO)c(=O)[nH]1` [acyclovir, 9-(2-hydroxyethoxymethyl) guanine, reference compound], the concentration in solution in the series “Solubility in water” (solubility) came to 1400 µg/mL (≈ 6.22 mM). Also, the “Mean reciprocal survival time” value in the series with herpes virus turned out to be 0.26. Also, the minimal effective dose in series [2] was found to be 100 mg/kg/day.
